Results: patent publication US5491135A (priority 1993, dated 1996)
In brackets after ≈: the same amount, converted by molar mass. Several values for one entry are separate records, joined by “and”; a condition that tells them apart may be missing. Identical values can stand only once. Like-named read-outs stand apart in the source and are kept apart here.

Legend:
[1] = test system: Japanese encephalitis virus; settings: Vero; 50% inhibition
Punta toro virus [2] = experiment: microbe, parasite or virus in culture; settings: Vero
Herpes-1 = experiment: In vitro antiviral assay; format: cell-based; settings: Vero
simian varicella virus = experiment: Simian varicella virus infection in African green monkeys; format: in vivo, African green monkey
Procedure: Fifteen African green monkeys were weighed and bled for clinical chemistry hematology baselines. […] Each of the 15 monkeys were infected with simian varicella virus by intratracheal inoculation of 3.7×10^4 plaque forming units (PFU) of simian varicella virus. […] Control monkeys, service as infection controls, received twice daily intravenous injections of phosphate buffered saline administered at 1.0 ml/kg of body weight. A second group of three monkeys received PALA at 50 mg/kg/day given by intravenous bolus injection into the saphenous vein. A third group was given a lower dose of PALA at 20 mg/kg/day administered in a similar manner. Acyclovir treatment was administered at a subeffective dose of 10 mg/kg/day also given as intravenous bolus injection into the saphenous vein. A fifth group of three monkeys received a combined treatment of PALA at 20 mg/kg/day and acyclovir at 10 mg/kg/day. The drugs were injected into opposite veins at each time of treatment.
Drug solutions were prepared daily prior to treatment. Treatment was begun 24 hours after virus inoculation. PALA was provided as a solution in vials containing 5 ml at 100 mg/ml. The contents of three vials were pooled and seven ml of the pooled drug diluted to 28 ml to give 25 mg/ml. Five ml of this solution was diluted to […] to give 10 mg/ml. Drug was administered twice daily resulting in total daily doses of 50 or 20 mg/kg/day.
Acyclovir received as a gift from Burroughs Wellcome was weighed out as a 200 mg quantity. This was diluted with 5 ml of PBS and pH adjusted to 11.0 with 1N NaOH to effect solution. This was subsequently diluted to 40 ml to give a solution of 5 mg/ml and sterilized by filtration. Again, 1 ml per kg of body weight was administered by intravenous injection twice daily resulting in a dose of 10 mg/kg/day.
The clinical course of simian varicella infection was followed by collection of 2 ml of blood in heparin on day 2, 5, 7, 9 and 11 post-inoculation. The lymphocytes in the 2 ml specimen were separated on ficol-hypaque gradients, washed twice in RPMI-1640 medium and suspended in 10 ml of this medium. The 10 ml volume was divided between two 25 cm^2 tissue culture flasks seeded 24 hours earlier with Vero cells. After 5-7 days incubation, the culture fluids were discarded from the flasks and the cell monolayer fixed with methanol and stained with methylene blue-basic fuchsin. When dried the number of plaques in each flask were counted and the mean number of plaques between the two paired flasks were determined and expressed as a quantitation of viremia per ml of blood.
Rash was evaluated daily using a subjective scoring of severity from ± to 4+. A ± score indicates less than 10 vesicles seen on the skin of the monkey while 4+ indicates numerous vesicles covering the majority of the body surface. General clinical condition was assessed daily and anorexia noted by counting the number of food biscuits consumed daily. Monkeys dying during the course of the experiment were necropsied and simian varicella was determined as the cause of death based on the typical pathology. Baseline hematology and clinical chemistry tests were performed at three days before virus inoculation and again on day 0, immediately before virus inoculation. Following inoculation of simian varicella virus blood was taken for hematology and clinical chemistry tests at 3, 7, 9 and 11 days.
At 14 and 21 days after virus inoculation, blood was taken and the serum separated for quantitation of antibody. Antibody titers were obtained in a serum neutralization test employing a plaque reduction assay. The antibody titer expressed is the dilution of serum resulting in an 80 percent reduction in the number of plaques from that number occurring in control cultures without added serum.

HIV-1 = experiment: In vitro antiviral MTT CPE assay; format: cell-based
Coxsackie B3 = experiment: In vitro antiviral assay; format: cell-based
herpesvirus = settings: less effective by a factor; cited from earlier work
Vaccinia virus = experiment: microbe, parasite or virus in culture; format: cell-based, vaccinia virus (Lederle vaccine); settings: Vero
Punta toro virus [3] = settings: Vero
CMV = experiment: In vitro antiviral assay; format: cell-based
in vitro = settings: human, cem cells
RNA and DNA viruses = format: cell-based; settings: most viruses of Table 3
[4] = used alone; cited from earlier work
Sandfly fever virus = settings: Vero
humoral immune response = settings: tumor bearing animals; cited from earlier work

## O=C(O)C[C@H](NC(=O)CP(=O)(O)O)C(=O)O [PALA]
[1]
  TI (TC50/IC50): > 18.59 and > 18.80
Punta toro virus [2]
  IC50: 15.2 µg/mL (≈ 59.6 µM)
Herpes-1
  IC50: no inhibitory activity and None
Simian varicella virus; PALA 20 mg/kg/day i.v.
  death: died later that same day
Simian varicella virus; PALA 50 mg/kg/day i.v.
  death: died on day 10
Simian varicella virus; PALA 50 or Acyclovir 10 mg/kg/day
  thrombocytopenia on day 11: one monkey
Simian varicella virus; day 5, PALA 50 mg/kg/d i.v.
  Viremia, Mean PFU: 136 PFU and 154 PFU and 148 PFU
Simian varicella virus; day 13, PALA 50 mg/kg/d i.v.
  Severity of Rash: 4+
Simian varicella virus; day 14, PALA 50 mg/kg/d i.v.
  Severity of Rash: 4+
Simian varicella virus; high concentrations
  immunosuppression: Some concentration dependent immunosuppression was noted at high concentrations
HIV-1; CEM
  TI: ~ 5.0
HIV-1; Human immunodeficiency virus 1, CCRF-CEM
  IC50: 12 µg/mL (≈ 47 µM)
Coxsackie B3; Enterovirus B, B3, Vero
  IC50: ~33 µg/mL (≈ 129 µM)
Coxsackie B3; Vero
  TI: 9.7
herpesvirus
  antiherpes effectiveness relative to parent PAA: over 200
Vaccinia virus; Orthopoxvirus vaccinia
  IC50: 10 µg/mL (≈ 39.2 µM)
Vaccinia virus
  TI: 32.0
Punta toro virus [3]
  IC50: 18.4 µg/mL (≈ 72.1 µM)
Punta toro virus [3]; 50% inhibition
  TI (TC50/IC50): > 21.05 and > 17.35
Punta toro virus [3]; 95% inhibition
  TI(95): > 10.00
CMV; HFF
  TI: 32.0
CMV; Human betaherpesvirus 5, HFF
  IC50: 10 µg/mL (≈ 39.2 µM)
In vitro
  CC50: 60 µg/mL (≈ 235 µM)
RNA and DNA viruses
  therapeutic index: about 32
[4]
  clinical efficacy in cancer: relatively nonefficacious
Sandfly fever virus
  IC50: 14.9 µg/mL (≈ 58.4 µM)
Sandfly fever virus; 50% inhibition
  TI (TC50/IC50): > 15.32 and > 21.54
Humoral immune response
  effect on humoral immune response: does not appear to significantly alter humoral immune response
